This is an account of results in patent publication US7186701B2, “Dehydrating agent and method for dehydrating moist article using the agent and dehydrated article obtained by the method” (Kabushiki Kaisha Hayashibara Seibutsu Kagaku Kenkyujo, priority 2001, dated 2007).

For data set [1], the system named is α-isomaltosylglucosaccharide-forming enzyme. Kind of data set: Influence of metal ions on α-isomaltosylglucosaccharide-forming enzyme activity (C11 strain). It counts as biochemical, Bacillus globisporus C11 strain. The following applies: in the presence of 1 mM metal salt; None = 100. The procedure:
(§1) The activities of these enzymes were assayed as follows: The activity of α-isomaltosylglucosaccharide-forming enzyme was assayed by dissolving maltotriose in 100 mM acetate buffer (pH 6.0) to give a concentration of 2% (w/v) for a substrate solution, adding 0.5 ml of an enzyme solution to 0.5 ml of the substrate solution, enzymatically reacting the mixture solution at 35° C. for 60 min, boiling the reaction mixture for 10 min to suspend the enzymatic reaction, and quantifying maltose, among the isomaltosyl maltose and maltose formed in the reaction mixture, on HPLC as described in Experiment 1. One unit activity of the α-isomaltosylglucosaccharide-forming enzyme was defined as the enzyme amount that forms one micromole of maltose per minute under the above enzymatic reaction conditions.
(§2) The influence of metal ions on the activity of α-isomaltosylglucosaccharide-forming enzyme was examined in the presence of 1 mM of any of metal salts according to the assay for the enzyme activity.

Data set [2] has as its system Bacteroides vulgatus JCM 5826. Kind of data set: Assimilation test. The settings on record: 0.5% saccharide in PYF medium, 37° C., four days, anaerobic. The format is cell-based.
Data set [3] deals with Lactobacillus acidophilus JCM 1132. Kind of data set: Assimilation test. The format is cell-based. The settings on record: 0.5% saccharide in PYF medium, 37° C., four days, anaerobic.
The subject of data set [4] is α-isomaltosylglucosaccharide-forming enzyme. Kind of data set: Specificity of transfer acceptor (C11 enzyme). The format is biochemical, Bacillus globisporus C11 strain. The following applies: acceptor 1.6%, PINE-DEX #100 donor 4%, one unit/g donor, 30° C., pH 6.0, 24 hours. The procedure:
(§3) A variety of saccharides were tested whether they could be used as transferring-acceptors for the α-isomaltosylglucosaccharide-forming enzyme. A solution of D-glucose, D-xylose, L-xylose, D-galactose, D-fructose, D-mannose, D-arabinose, D-fucose, L-sorbose, L-rhamnose, methyl-α-glucopyranoside, methyl-β-glucopyranoside, N-acetyl-glucosamine, sorbitol, α,α-trehalose, isomaltose, isomaltotriose, cellobiose, gentibiose, maltitol, lactose, sucrose, α-cyclodextrin, β-cyclodextrin, or γ-cyclodextrin was prepared. […] The reaction mixtures after the enzymatic reactions were analyzed on gas chromatography (abbreviated as “GLC” hereinafter) for monosaccharides and disaccharides as acceptors, and on HPLC for trisaccharides and higher saccharides as acceptors to confirm whether these saccharides could be used as their transfer acceptors. In the case of performing GLC, the following apparatuses and conditions were used: […] In the case of HPLC analysis, the apparatuses and conditions used were: HPLC apparatus, “CCPD” commercialized by Tosoh Corporation, Tokyo, Japan; column, “ODS-AQ-303” commercialized by YMC Co., Ltd., Tokyo, Japan; eluent, water at a flow rate of 0.5 ml/min; and detection, a differential refractometer.

Data set [5] has as its system Eubacterium aerofaciens ATCC 25986. Kind of data set: Assimilation test. The settings on record: 0.5% saccharide in PYF medium, 37° C., four days, anaerobic. It counts as cell-based.
Data set [6] relates to Clostridium perfringens JCM 3816. The format is cell-based. The settings on record: 0.5% saccharide in PYF medium, 37° C., four days, anaerobic.
For data set [7], the system named is Bifidobacterium adolescentis JCM 1275. Kind of data set: Assimilation test. The format is cell-based. The settings on record: 0.5% saccharide in PYF medium, 37° C., four days, anaerobic.
Data set [8] has as its system Escherichia coli IFO 3301. Kind of data set: Assimilation test. The format is cell-based. The settings on record: 0.5% saccharide in PYF medium, 37° C., four days, anaerobic.
Data set [9] has as its system α-isomaltosylglucosaccharide-forming enzyme. Kind of data set: Specificity of transfer acceptor (C9 enzyme). The following applies: acceptor 1.6%, PINE-DEX #100 donor 4%, one unit/g donor, 30° C., pH 6.0, 24 hours. It counts as biochemical, Bacillus globisporus C9 strain. The procedure:
as §3

For a further data set, the target named is T1, amylopsin (Homo sapiens, UniProt P04746).
T1 sequence (P04746 16-511): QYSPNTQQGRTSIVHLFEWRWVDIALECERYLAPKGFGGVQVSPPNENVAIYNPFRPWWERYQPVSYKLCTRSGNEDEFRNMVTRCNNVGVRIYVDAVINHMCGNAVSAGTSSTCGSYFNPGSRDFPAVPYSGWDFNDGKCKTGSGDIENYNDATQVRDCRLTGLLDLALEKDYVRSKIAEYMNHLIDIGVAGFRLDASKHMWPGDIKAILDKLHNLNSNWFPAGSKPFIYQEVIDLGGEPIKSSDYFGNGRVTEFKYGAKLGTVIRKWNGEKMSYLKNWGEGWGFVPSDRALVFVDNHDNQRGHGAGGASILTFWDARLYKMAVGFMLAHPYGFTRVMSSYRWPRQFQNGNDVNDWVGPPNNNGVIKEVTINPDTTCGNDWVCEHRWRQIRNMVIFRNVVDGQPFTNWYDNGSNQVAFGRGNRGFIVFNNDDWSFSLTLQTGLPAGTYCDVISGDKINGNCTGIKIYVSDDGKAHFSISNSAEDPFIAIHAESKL
Kind of data set: Digestion test in vitro, amylopsin.

Data set [10] can be described thus: Digestion test in vitro, synthetic gastric juice.
For data set [11], the system named is Small intestinal mucosal enzyme. Kind of data set: Digestion test in vitro, small intestinal mucosal enzyme.
For another data set, the target named is T2, salivary amylase (Homo sapiens, UniProt P0DUB6).
T2 sequence (P0DUB6 16-511): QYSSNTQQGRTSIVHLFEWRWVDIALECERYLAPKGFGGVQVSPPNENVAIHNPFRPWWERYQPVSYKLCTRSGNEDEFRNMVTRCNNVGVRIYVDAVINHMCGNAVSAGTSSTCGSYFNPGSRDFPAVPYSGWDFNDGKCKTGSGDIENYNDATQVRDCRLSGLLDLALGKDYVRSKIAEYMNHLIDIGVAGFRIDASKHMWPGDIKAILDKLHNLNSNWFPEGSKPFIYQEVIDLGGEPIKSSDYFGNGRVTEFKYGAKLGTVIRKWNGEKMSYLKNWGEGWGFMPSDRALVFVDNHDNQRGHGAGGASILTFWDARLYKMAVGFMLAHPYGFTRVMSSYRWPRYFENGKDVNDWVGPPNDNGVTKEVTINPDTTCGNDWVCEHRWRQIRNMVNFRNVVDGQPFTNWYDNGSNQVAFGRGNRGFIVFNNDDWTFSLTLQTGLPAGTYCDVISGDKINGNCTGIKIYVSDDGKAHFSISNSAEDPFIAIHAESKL
Kind of data set: Digestion test in vitro, salivary amylase.

For data set [12], the system named is α-isomaltosylglucosaccharide-forming enzyme. Kind of data set: Influence of metal ions on α-isomaltosylglucosaccharide-forming enzyme activity (C9 strain). The format is biochemical, Bacillus globisporus C9 strain. The following applies: in the presence of 1 mM metal salt; None = 100. The procedure: as §1, §2
The nature of data set [13]: Dehydrating action: moisture absorption on standing at controlled relative humidity. It counts as physicochemical. The following applies: for moisture content (%) by the Karl Fisher method: 25° C., listed as A. The source says:
Anhydrous crystalline cyclotetrasaccharide; crystalline cyclotetrasaccharide, monohydrate; anhydrous amorphous cyclotetrasaccharide; and crystalline cyclotetrasaccharide, penta- or hexa-hydrate were experimented in detail on their dehydrating actions, particularly, moisture absorption abilities against saccharides and changes on standing. As a control, anhydrous crystalline α,α-trehalose, anhydrous amorphous α,α-trehalose, and crystalline α,α-trehalose, dihydrate, were used as saccharides. The experiments were as follows: […]

Data set [14] in a line: Dehydration and pulverization of plain yogurt by non-reducing saccharide. The arrangement: unit not given here. The following applies: listed as A. The method, then: The anhydrous crystalline cyclotetrasaccharide; crystalline cyclotetrasaccharide, monohydrate; and anhydrous amorphous cyclotetrasaccharide were respectively prepared by the methods in Examples A-1, A-2, and A-3. As the crystalline α,α-trehalose, dihydrate, a commercially available “TREHA®” commercialized by Hayashibara Shoji Inc., Okayama, Japan, was used. The anhydrous crystalline α,α-trehalose and the anhydrous amorphous α,α-trehalose used in this experiment were prepared from a commercialized crystalline α,α-trehalose, dihydrate, using the methods disclosed in Examples for Reference 1 and 3 in Japanese Patent Kokai No. 170,221/94. To four parts by weight of a plain yogurt with a moisture content of about 77% was added either of the above saccharides in an amount of 11 to 16 parts by weight. The resultant mixtures were respectively placed in vats, allowed to stand at 25° C. for 24 hours, and macroscopically observed their change on standing. The judgement was conducted in such a manner of sufficiently dehydrating the resulting mixtures to be solidified, subjected to a pulverizer for pulverization, and evaluated as “◯”, when the solids were easily pulverized; “Δ”, when the dehydration of the resulting mixtures was rather insufficient and the pulverization of solids was substantially difficult, though the resulting mixtures were solidified; and “x”, when the dehydration of the resulting mixtures was insufficient and could not be pulverized by a pulverizer.

For a further data set, the system named is Aspergillus niger. Kind of data set: Bacterial contamination of gelatinized starch (gyuhi). The following applies: 25° C., open conditions. The procedure: The mixture was mixed with a mixer and further mixed to homogeneity with two parts by weight of a starch hydrolyzate, shaped, and roughly dried for two hours, while blowing 40° C. hot air to the contents, to obtain “gyuhi” (a rice paste with sugar).

For the compound `[Al+3]` [Al^3+], the “Relative activity (%)” value in data set [1] is 100%.

Consider `O=C[C@H](O)[C@@H](O)[C@H](O)[C@H](O)CO` [D-Glucose, D-glucose, reference compound], for which the Assimilability entry in data set [2], in [3], in [5], in [6], in data set [7] and in data set [8] was “+ (judged as positive (+) when the post culture had a pH of below 6.0)” throughout. Further, the “Product of saccharide transferring reaction, Enzyme of C11 strain” value in data set [4] is “+ (a saccharide-transferred product was detected in an amount of at least one percent but less than ten percent through transferring reaction to acceptor)”. In addition, in data set [9], the “Product of saccharide transferring reaction, Enzyme of C9 strain” value is “+ (a saccharide-transferred product was detected in an amount of at least one percent but less than ten percent through transferring reaction to acceptor)”.

Take `[Fe+2]` [Fe^2+]: the “Relative activity (%)” value in [1] came out at 100%.

As to `OC[C@@H](O)[C@@H](O[C@H]1O[C@H](CO)[C@@H](O)[C@H](O)[C@H]1O)[C@H](O)[C@@H](O)CO` [Maltitol, maltitol], the “Decomposition percentage (%) by digestive enzyme” value at amylopsin turned out to be 0.0%; in data set [10], 0.0%; in [11], 4.0%; on salivary amylase it was 0.0%. Further, the “Product of saccharide transferring reaction, Enzyme of C11 strain” value in data set [4] is recorded as “++ (a saccharide-transferred product was detected in an amount of at least ten percent through transferring reaction to acceptor)”. In data set [9], the “Product of saccharide transferring reaction, Enzyme of C9 strain” value is “++ (a saccharide-transferred product was detected in an amount of at least ten percent through transferring reaction to acceptor)”.

As to `[Mg+2]` [Mg^2+], in [12], the “Relative activity (%)” value was found to be 100%.

Take `OC[C@H]1O[C@@H]2OC[C@H]3O[C@H](O[C@@H]4[C@@H](O)[C@@H](OC[C@H]5O[C@H](O[C@H]([C@H]2O)[C@@H]1O)[C@H](O)[C@@H](O)[C@@H]5O)O[C@H](CO)[C@H]4O)[C@H](O)[C@@H](O)[C@@H]3O` [Saccharide A, anhydrous crystalline cyclotetrasaccharide]: the “moisture content (%) by the Karl Fisher method” value came to 0.2% in [13] (relative humidity 60%, 0 days after treatment); 10.2% in data set [13] (relative humidity 60%, 1 day after treatment); 10.3% in data set [13] (relative humidity 60%, 2 days after treatment); 10.3% in [13] (relative humidity 60%, 3 days after treatment); 10.4% in data set [13] (relative humidity 60%, 7 days after treatment); 0.2% in data set [13] (relative humidity 75%, 0 days after treatment). Moreover, the “moisture content (%) by the Karl Fisher method” value in data set [13] (relative humidity 75%, 1 day after treatment) was found to be 13.9%; in [13] (relative humidity 75%, 2 days after treatment) it was 14.4%; in data set [13] (relative humidity 75%, 3 days after treatment), 14.4%; in data set [13] (relative humidity 75%, 7 days after treatment) it was 14.3%. Further, the “moisture absorption level, % of its weight” value is listed as “about 10%” in data set [13] (relative humidity of 60%, listed as anhydrous crystalline cyclotetrasaccharide) and “about 14%” in data set [13] (relative humidity of 75%). For the same compound, the “Water content (before use)” value in [14] worked out at 0.2. Moreover, the “bacterial contamination in gyuhi” value with Aspergillus niger (at 30 days on standing) was “found no bacterial contamination”.

For “crystalline cyclotetrasaccharide, penta- or hexa-hydrate [Saccharide D]”, the “colonies of Aspergillus niger found in gyuhi, days on standing” value with Aspergillus niger (gyuhi with six parts by weight of saccharide) was 15 days.
